Measured values from ChEMBL document CHEMBL1201862, “PubChem BioAssay data set” (2004).
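Cultured in 96-well plates, cells were exposed to test compound for 48 hours across five concentrations. GI50: concentration for 50% inhibition of growth.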 Activity calls are given as the source filed them. No stated cut-off is given here; in the data, active = GI50 up to about 1.1 µM and inactive = higher.

Experiments:
Experiment in all cases: NCI anticancer screen, dose series, 48 h
NCI-H226 = test system: NCI-H226
HCC 2998 = test system: HCC 2998
SK-MEL-5 = test system: SK-MEL-5
U-251 = test system: U-251
SK-MEL-2 = test system: SK-MEL-2
MOLT-4 = test system: MOLT-4
TK-10 = test system: TK-10
UACC-257 = test system: UACC-257
MCF7 = test system: MCF7
HT-29 = test system: HT-29
SR = test system: SR
A549 = test system: A549
SK-OV-3 = test system: SK-OV-3
PC-3 = test system: PC-3
Hs-578T = test system: Hs-578T
UACC-62 = test system: UACC-62
NCI-H522 = test system: NCI-H522
HCT-15 = test system: HCT-15
SW-620 = test system: SW-620
KM12 = test system: KM12
COLO 205 = test system: COLO 205
MDA-MB-231 = test system: MDA-MB-231
SF-268 = test system: SF-268
T47D = test system: T47D
SF-295 = test system: SF-295
NCI-H23 = test system: NCI-H23
MDA-MB-435 = test system: MDA-MB-435
ACHN = test system: ACHN
OVCAR-8 = test system: OVCAR-8
NCI/ADR-RES = test system: NCI/ADR-RES
HOP-92 = test system: HOP-92
CAKI-1 = test system: CAKI-1
MDA-N = test system: MDA-N
OVCAR-5 = test system: OVCAR-5
SNB-75 = test system: SNB-75
SK-MEL-28 = test system: SK-MEL-28
RPMI-8226 = test system: RPMI-8226
EKVX = test system: EKVX
RXF 393 = test system: RXF 393
SNB-19 = test system: SNB-19
NCI-H460 = test system: NCI-H460
HOP-62 = test system: HOP-62
LOX IMVI = test system: LOX IMVI
OVCAR-3 = test system: OVCAR-3
SN12C = test system: SN12C
IGROV-1 = test system: IGROV-1
CCRF-CEM = test system: CCRF-CEM
M14 = test system: M14
786-0 = test system: 786-0
Malme-3M = test system: Malme-3M
UO-31 = test system: UO-31
HL-60 = test system: HL-60
SF-539 = test system: SF-539
K562 = test system: K562
BT-549 = test system: BT-549
HCT-116 = test system: HCT-116
DU-145 = test system: DU-145
OVCAR-4 = test system: OVCAR-4
A498 = test system: A498

## COc1cc(C=C2N=C(c3ccccc3)N(n3c(-c4ccccc4)nc4ccccc4c3=O)C2=O)cc(OC)c1OC
NCI-H226
  GI50: 25.6 µM (inactive)
HCC 2998
  GI50: 30.7 µM (inactive)
SK-MEL-5
  GI50: 23.4 µM (inactive)
U-251
  GI50: > 10 µM (inactive)
SK-MEL-2
  GI50: 21.1 µM (inactive)
MOLT-4
  GI50: 30 µM (inactive)
TK-10
  GI50: 45.9 µM (inactive)
UACC-257
  GI50: 20.1 µM (inactive)
MCF7
  GI50: 22 µM (inactive)
HT-29
  GI50: 31.8 µM (inactive)
SR
  GI50: 40.7 µM (inactive)
A549
  GI50: 36.9 µM (inactive)
SK-OV-3
  GI50: 35.4 µM (inactive)
PC-3
  GI50: 31.1 µM (inactive)
Hs-578T
  GI50: 15.8 µM (inactive)
UACC-62
  GI50: 22.3 µM (inactive)
NCI-H522
  GI50: 20.1 µM (inactive)
HCT-15
  GI50: 31.5 µM
SW-620
  GI50: 31.9 µM (inactive)
KM12
  GI50: 19.7 µM (inactive)
COLO 205
  GI50: 22 µM (inactive)
MDA-MB-231
  GI50: 21.9 µM (inactive)
SF-268
  GI50: 28.4 µM (inactive)
T47D
  GI50: 20.3 µM (inactive)
SF-295
  GI50: 19.5 µM (inactive)
NCI-H23
  GI50: 19.1 µM (inactive)
MDA-MB-435
  GI50: 24.3 µM (inactive)
ACHN
  GI50: 28.7 µM (inactive)
OVCAR-8
  GI50: 21.1 µM (inactive)
NCI/ADR-RES
  GI50: 38.9 µM (inactive)
HOP-92
  GI50: 14.5 µM (inactive)
CAKI-1
  GI50: 48.3 µM (inactive)
MDA-N
  GI50: 29 µM (inactive)
OVCAR-5
  GI50: 38.9 µM (inactive)
SNB-75
  GI50: 23.1 µM (inactive)
SK-MEL-28
  GI50: 17.7 µM (inactive)
RPMI-8226
  GI50: > 10 µM (inactive)
EKVX
  GI50: 23.8 µM (inactive)
RXF 393
  GI50: 12.1 µM (inactive)
SNB-19
  GI50: 24.7 µM (inactive)
NCI-H460
  GI50: 20.3 µM (inactive)
HOP-62
  GI50: 13.6 µM (inactive)
LOX IMVI
  GI50: 21.6 µM (inactive)
OVCAR-3
  GI50: 21.3 µM (inactive)
SN12C
  GI50: 16.9 µM (inactive)
IGROV-1
  GI50: 32.5 µM (inactive)
CCRF-CEM
  GI50: 48.5 µM (inactive)
M14
  GI50: 27.2 µM (inactive)
786-0
  GI50: 21.8 µM (inactive)
Malme-3M
  GI50: 19.3 µM (inactive)
UO-31
  GI50: 31 µM (inactive)
HL-60
  GI50: 49.1 µM (inactive)
SF-539
  GI50: 18.7 µM (inactive)
K562
  GI50: 45.8 µM (inactive)
BT-549
  GI50: 16.4 µM (inactive)
HCT-116
  GI50: 22.2 µM (inactive)
DU-145
  GI50: 27.6 µM (inactive)
OVCAR-4
  GI50: 27.4 µM (inactive)

## CSc1nc(=S)[nH]c2[nH]nc(C)c12
NCI-H226
  GI50: > 100 µM (inactive)
HCC 2998
  GI50: > 100 µM (inactive)
SK-MEL-5
  GI50: > 100 µM (inactive)
U-251
  GI50: > 100 µM (inactive)
SK-MEL-2
  GI50: > 100 µM (inactive)
MOLT-4
  GI50: > 100 µM (inactive)
TK-10
  GI50: > 100 µM (inactive)
UACC-257
  GI50: > 100 µM (inactive)
MCF7
  GI50: > 100 µM (inactive)
HT-29
  GI50: > 100 µM (inactive)
SR
  GI50: 94.4 µM (inactive)
A549
  GI50: > 100 µM (inactive)
SK-OV-3
  GI50: > 100 µM (inactive)
PC-3
  GI50: > 100 µM (inactive)
Hs-578T
  GI50: > 100 µM (inactive)
UACC-62
  GI50: > 100 µM (inactive)
NCI-H522
  GI50: 55 µM (inactive)
HCT-15
  GI50: > 100 µM
SW-620
  GI50: > 100 µM (inactive)
KM12
  GI50: > 100 µM (inactive)
COLO 205
  GI50: > 100 µM (inactive)
MDA-MB-231
  GI50: > 100 µM (inactive)
SF-268
  GI50: > 100 µM (inactive)
T47D
  GI50: > 100 µM (inactive)
A498
  GI50: 73.3 µM (inactive)
NCI-H23
  GI50: > 100 µM (inactive)
MDA-MB-435
  GI50: > 100 µM (inactive)
OVCAR-8
  GI50: > 100 µM (inactive)
NCI/ADR-RES
  GI50: > 100 µM (inactive)
CAKI-1
  GI50: > 100 µM (inactive)
MDA-N
  GI50: > 100 µM (inactive)
OVCAR-5
  GI50: > 100 µM (inactive)
SNB-75
  GI50: > 100 µM (inactive)
SK-MEL-28
  GI50: > 100 µM (inactive)
RPMI-8226
  GI50: > 100 µM (inactive)
EKVX
  GI50: > 100 µM (inactive)
RXF 393
  GI50: > 100 µM (inactive)
SNB-19
  GI50: > 100 µM (inactive)
NCI-H460
  GI50: > 100 µM (inactive)
LOX IMVI
  GI50: > 100 µM (inactive)
OVCAR-3
  GI50: > 100 µM (inactive)
SN12C
  GI50: > 100 µM (inactive)
CCRF-CEM
  GI50: > 100 µM (inactive)
M14
  GI50: > 100 µM (inactive)
786-0
  GI50: > 100 µM (inactive)
Malme-3M
  GI50: > 100 µM (inactive)
UO-31
  GI50: > 100 µM (inactive)
HL-60
  GI50: > 100 µM (inactive)
SF-539
  GI50: > 100 µM (inactive)
K562
  GI50: > 100 µM (inactive)
BT-549
  GI50: > 100 µM (inactive)
HCT-116
  GI50: > 100 µM (inactive)
DU-145
  GI50: > 100 µM (inactive)
OVCAR-4
  GI50: > 100 µM (inactive)

## O=C(/C=C/c1ccc(Cl)cc1)c1ccc(Cl)s1
HCC 2998
  GI50: 22.2 µM (inactive)
SK-MEL-5
  GI50: > 10 µM (inactive)
U-251
  GI50: 32.6 µM (inactive)
MOLT-4
  GI50: 27.7 µM (inactive)
TK-10
  GI50: 85.3 µM (inactive)
UACC-257
  GI50: > 100 µM (inactive)
MCF7
  GI50: 4.8 µM (inactive)
HT-29
  GI50: 42.3 µM (inactive)
SR
  GI50: 34.3 µM (inactive)
A549
  GI50: 62.2 µM (inactive)
SK-OV-3
  GI50: 98.6 µM (inactive)
PC-3
  GI50: 63 µM (inactive)
Hs-578T
  GI50: 40.5 µM (inactive)
UACC-62
  GI50: 23.4 µM (inactive)
NCI-H522
  GI50: 64.1 µM (inactive)
HCT-15
  GI50: 60.3 µM
SW-620
  GI50: 22 µM (inactive)
KM12
  GI50: 29.1 µM (inactive)
COLO 205
  GI50: 70.8 µM (inactive)
MDA-MB-231
  GI50: 60.7 µM (inactive)
SF-268
  GI50: 72.1 µM (inactive)
T47D
  GI50: 46 µM (inactive)
A498
  GI50: 19.1 µM (inactive)
SF-295
  GI50: 78.3 µM (inactive)
NCI-H23
  GI50: 38.9 µM (inactive)
MDA-MB-435
  GI50: > 10 µM (inactive)
ACHN
  GI50: 87.3 µM (inactive)
OVCAR-8
  GI50: 55.8 µM (inactive)
NCI/ADR-RES
  GI50: 72.1 µM (inactive)
HOP-92
  GI50: 82.4 µM (inactive)
MDA-N
  GI50: 28.4 µM (inactive)
OVCAR-5
  GI50: > 100 µM (inactive)
SNB-75
  GI50: 39 µM (inactive)
SK-MEL-28
  GI50: 50.1 µM (inactive)
RPMI-8226
  GI50: 17.8 µM (inactive)
EKVX
  GI50: 68.9 µM (inactive)
RXF 393
  GI50: 23.2 µM (inactive)
SNB-19
  GI50: 50.5 µM (inactive)
NCI-H460
  GI50: 67.8 µM (inactive)
HOP-62
  GI50: > 100 µM (inactive)
LOX IMVI
  GI50: 12.2 µM (inactive)
OVCAR-3
  GI50: 58.7 µM (inactive)
SN12C
  GI50: > 100 µM (inactive)
IGROV-1
  GI50: 49.2 µM (inactive)
CCRF-CEM
  GI50: 27 µM (inactive)
M14
  GI50: 44.1 µM (inactive)
786-0
  GI50: 32.9 µM (inactive)
Malme-3M
  GI50: > 100 µM (inactive)
UO-31
  GI50: 51.8 µM (inactive)
HL-60
  GI50: 24.3 µM (inactive)
SF-539
  GI50: 36.5 µM (inactive)
K562
  GI50: 30.3 µM (inactive)
BT-549
  GI50: 27 µM (inactive)
HCT-116
  GI50: 10.5 µM (inactive)
DU-145
  GI50: > 100 µM (inactive)
OVCAR-4
  GI50: 69 µM (inactive)
